Experimental data published in patent publication US4910296A, “Medicaments containing alpha 1 thymosin fragments and having an immunostimulant action, and fragments of alpha 1 thymosin” (priority 1980, dated 1990).
Where two headings read alike, the source gives them in different places. Residues, ends and D or L forms follow the SMILES beside them. No end group written: not given here.

Tests used:
[1] = system: peripheral human lymphocytes; assay type: cell-based; settings: for E-rosette number (%): cells blocked with α-amanitin = 0%, normal level without any addition = 100%, at optimum concentration; for Optimum concentr.: concentration giving the stated E-rosette number; for Relative number of E-rosettes (%): after inhibition with α-amanitin
Excerpt: (§1) The immunological test methods used were the E-rosette test according to Wara, Ammann et al. (N.Y. Acad. Sci. 249 (1975) 308 and N. Engl. J. Med. 292 (1975) 70) and the method of mixed lymphocyte culture, both methods involving additional inhibition of cellular RNS polymerase by alpha-amanitin. The E-rosette test is based on the fact that the percentage of E-rosette forming cells in peripheral human blood is a measure of the content of fully mature T-cells, which form with sheep's red blood cells characteristic aggregates which can be counted under the microscope.
For the performance of the E-rosette test, peripheral human lymphocytes are isolated by a gradient centrifugation. Their RNS polymerase is blocked by alpha-amanitin. […] This value is taken as 100% in a relative numerical scale, and after the Alpha-amanitin blockage it is taken to be 0%; see Table XII.

[2] = system: human peripheral lymphocytes; assay type: cell-based; settings: for stimulation (+) / inhibition (-) of mixed lymphocyte culture: 1 μg fragment per ml, not blocked, culture without addition = 0%; for Stimulation (%) of allogenic mixed culture: 1 microgram thymosin α1 per ml
Excerpt: as §1
The test in mixed lymophocyte cultures is based on the fact that T-cells are made to proliferate by stimulation with allogenic antigens. For the performance of the test, the lymphocytes of donor A ("responder") are incubated with those of donor B ("stimulator") for 4 to 5 days. Then ^3 H-thymidin is added and the rate of proliferation is measured on the basis of the increasing radioactivity of the cell culture due to the installation of the radioactive material. Since both populations A and B might be made to proliferate, resulting in an unclear effect, population B is blocked with mitomycin C in all metabolical activities. This test is routinely used before organ transplants to determine the immunological compatibility of donor and receiver tissues.

Row | Molecule | E-rosette number (%) [1] | Optimum concentr. [1] | stimulation (+) / inhibition (-) of mixed lymphocyte culture ([2]; cell pair AB) | stimulation (+) / inhibition (-) of mixed lymphocyte culture ([2]; cell pair CD) | stimulation (+) / inhibition (-) of mixed lymphocyte culture ([2]; cell pair DC) | also measured
1 | C[C@H](NC(=O)[C@@H](N)CCC(=O)O)C(=O)N[C@@H](CCC(=O)O)C(=O)N[C@@H](CC(N)=O)C(=O)O [V] (H-EAEN-OH) | 42% | 113 μm | +223% | +45% | +37% | 
2 | TSSEIT [II] | 29% | 80 μm |  | -53% | +30% | stimulation (+) / inhibition (-) of mixed lymphocyte culture ([2]; cell pair BA): -18%
3 | Ac-SDAAVDTSSEIT [IX] | 40% | 4 μm | -74% | -63% | -77% | 
4 | TKDLKEKKEVVEEAEN [VII] | 41% | 6 μm |  |  |  | 
5 | KEVVEEAEN [VI] | 16% | 10 μm | +153% | +57% |  | 
6 | thymosin α1 (SDAAVDTSSEITTKDLKEKKEVVEEAEN; ends and bridges not checked; UniProt P06454 2-29, looked up) [Thymosin (synthetic), parent substance, totally synthetic thymosin α1, 28 amino acids, analytically pure, reference compound] | 100% | 1.6 μm |  |  |  | Relative number of E-rosettes (%) ([1]; 0.25 μg per culture): 39%; Relative number of E-rosettes (%) ([1]; 0.50 μg per culture): 100%; Relative number of E-rosettes (%) ([1]; 1.00 μg per culture): 64%; Relative number of E-rosettes (%) ([1]; 2.50 μg per culture): 57%; Relative number of E-rosettes (%) ([1]; 5.00 μg per culture): 33%; Stimulation (%) of allogenic mixed culture ([2]; cell pair AB, culture inhibited with 1 microgram α-amanitin per ml): +86%; Stimulation (%) of allogenic mixed culture ([2]; cell pair AB, culture not inhibited, stimulator cells blocked with mitomycin): +20%; Stimulation (%) of allogenic mixed culture ([2]; cell pair AD, culture inhibited with 1 microgram α-amanitin per ml): +37%; Stimulation (%) of allogenic mixed culture ([2]; cell pair AD, culture not inhibited): +4%; Stimulation (%) of allogenic mixed culture ([2]; cell pair BA, culture inhibited with 1 microgram α-amanitin per ml): +47%; Stimulation (%) of allogenic mixed culture ([2]; cell pair BA, culture not inhibited): +27%; Stimulation (%) of allogenic mixed culture ([2]; cell pair BD, culture inhibited with 1 microgram α-amanitin per ml): +51%; Stimulation (%) of allogenic mixed culture ([2]; cell pair BD, culture not inhibited): +45%; Stimulation (%) of allogenic mixed culture ([2]; cell pair DA, culture inhibited with 1 microgram α-amanitin per ml): +0%; Stimulation (%) of allogenic mixed culture ([2]; cell pair DA, culture not inhibited): +44%; Stimulation (%) of allogenic mixed culture ([2]; cell pair DB, culture inhibited with 1 microgram α-amanitin per ml): +1550%; Stimulation (%) of allogenic mixed culture ([2]; cell pair DB, culture not inhibited): +27%
7 | KDAAVD [Ia] | 93% | 16 μm | -8% | -73% | -31% | stimulation (+) / inhibition (-) of mixed lymphocyte culture ([2]; cell pair BA): -15%
